Our source for the IC50 values is patent US20260355212A1 (priority 2022, published 2026).

As a reminder, the IC50 is the concentration that inhibits the measured activity by half.

Like-named read-outs stand apart in the source and are kept apart here.

The target of experiment [1] is HCoV-229E Mpro (Human coronavirus 229E, UniProt P0C6X1). In words: HCoV-229E Mpro enzymatic inhibition assay (fluorescence). The experiment is classed as biochemical.
For experiment [2], the target named is SARS-CoV-2 Mpro (Severe acute respiratory syndrome coronavirus 2, UniProt P0DTD1). In words: SARS-CoV-2 Mpro enzymatic inhibition assay (fluorescence). The experiment is classed as biochemical. Summed up: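 A fluorescence readout (340 nm excitation, 490 nm emission) was taken after the substrate reaction ran 60 min at 30° C. Before substrate addition, E. coli-expressed protease and compound (3-fold dilutions, 10 doses, duplicates) sat together 30 min at room temperature. Percent inhibition was fitted by variable-slope nonlinear regression to give IC50.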

Experiment [3] has as its target HCoV-OC43 Mpro (Human coronavirus OC43, UniProt P0C6X6). In words: HCoV-OC43 Mpro enzymatic inhibition assay (fluorescence). Format: biochemical. Summed up:
(§1)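 E. coli-expressed Mpro + cpd, 30 min RT preinc; add fluorogenic substrate, 60 min 30 °C; read Ex/Em 340/490 nm. % inhibition vs DMSO and GC376 controls, corrected with no-enzyme compound blanks; IC50 by 4-parameter logistic fit.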

For experiment [4], the target named is SARS-CoV-1 Mpro (Severe acute respiratory syndrome coronavirus, UniProt P0C6X7). The experiment is described as follows: biochemical.
The target of experiment [5] is MERS Mpro (Middle East respiratory syndrome-related coronavirus, UniProt K9N7C7). The experiment is described as follows: biochemical. The arrangement: species or system MERS-CoV.
Experiment [6] has as its target HCoV-NL63 Mpro (Human coronavirus NL63, UniProt P0C6X5). In words: HCoV-NL63 Mpro enzymatic inhibition assay (fluorescence). Format: biochemical. Summed up: as §1
For experiment [7], the target named is HCoV-HKU1 Mpro (Human coronavirus HKU1, UniProt P0C6X2). The experiment is described as follows: HCoV-HKU1 Mpro enzymatic inhibition assay (fluorescence). Format: biochemical. Summed up: as §1
Setting [8] is: mean, 25 nM protein, 25 μM substrate, 30 min pre-incubation, 60 min at 30° C., read-out: Mpro_SARS-CoV-2 mean IC50.

Chain of MERS Mpro (K9N7C7 3248-3553 limits assumed): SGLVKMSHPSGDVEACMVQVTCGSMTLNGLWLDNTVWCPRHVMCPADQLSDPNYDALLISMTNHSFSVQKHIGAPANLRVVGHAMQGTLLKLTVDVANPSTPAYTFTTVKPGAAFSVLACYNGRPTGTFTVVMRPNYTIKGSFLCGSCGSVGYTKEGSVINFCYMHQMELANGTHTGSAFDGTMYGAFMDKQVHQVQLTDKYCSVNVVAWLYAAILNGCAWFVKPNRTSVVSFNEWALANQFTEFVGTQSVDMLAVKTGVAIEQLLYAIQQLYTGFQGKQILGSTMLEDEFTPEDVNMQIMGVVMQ
Chain of HCoV-NL63 Mpro (P0C6X5 2940-3242 limits assumed): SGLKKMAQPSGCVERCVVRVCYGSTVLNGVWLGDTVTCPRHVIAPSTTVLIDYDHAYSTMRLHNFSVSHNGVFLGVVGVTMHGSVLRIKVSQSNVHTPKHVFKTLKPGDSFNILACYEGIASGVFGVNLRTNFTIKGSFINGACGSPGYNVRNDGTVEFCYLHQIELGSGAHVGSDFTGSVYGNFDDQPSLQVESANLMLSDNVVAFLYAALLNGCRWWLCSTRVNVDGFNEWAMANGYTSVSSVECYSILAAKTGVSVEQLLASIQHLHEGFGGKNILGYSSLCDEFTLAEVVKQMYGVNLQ
Chain of HCoV-OC43 Mpro (P0C6X6 3247-3549 limits assumed): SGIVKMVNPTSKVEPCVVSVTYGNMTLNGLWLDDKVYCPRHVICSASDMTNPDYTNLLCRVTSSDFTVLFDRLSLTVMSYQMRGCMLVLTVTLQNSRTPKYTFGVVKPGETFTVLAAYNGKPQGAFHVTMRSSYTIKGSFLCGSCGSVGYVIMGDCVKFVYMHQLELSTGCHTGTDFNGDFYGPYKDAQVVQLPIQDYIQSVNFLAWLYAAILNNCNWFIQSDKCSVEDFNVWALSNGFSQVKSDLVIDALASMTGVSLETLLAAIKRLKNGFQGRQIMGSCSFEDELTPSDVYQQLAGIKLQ
Chain of HCoV-HKU1 Mpro (P0C6X2 3335-3637 limits assumed): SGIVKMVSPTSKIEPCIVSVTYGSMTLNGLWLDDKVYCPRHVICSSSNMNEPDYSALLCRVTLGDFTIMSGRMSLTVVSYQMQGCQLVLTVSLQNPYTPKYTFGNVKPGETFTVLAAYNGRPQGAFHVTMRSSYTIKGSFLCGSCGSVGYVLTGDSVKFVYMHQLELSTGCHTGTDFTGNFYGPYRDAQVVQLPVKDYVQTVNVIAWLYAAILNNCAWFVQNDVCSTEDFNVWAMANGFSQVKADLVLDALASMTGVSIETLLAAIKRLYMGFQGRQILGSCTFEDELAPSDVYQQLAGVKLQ
Chain of HCoV-229E Mpro (P0C6X1 2966-3267 limits assumed): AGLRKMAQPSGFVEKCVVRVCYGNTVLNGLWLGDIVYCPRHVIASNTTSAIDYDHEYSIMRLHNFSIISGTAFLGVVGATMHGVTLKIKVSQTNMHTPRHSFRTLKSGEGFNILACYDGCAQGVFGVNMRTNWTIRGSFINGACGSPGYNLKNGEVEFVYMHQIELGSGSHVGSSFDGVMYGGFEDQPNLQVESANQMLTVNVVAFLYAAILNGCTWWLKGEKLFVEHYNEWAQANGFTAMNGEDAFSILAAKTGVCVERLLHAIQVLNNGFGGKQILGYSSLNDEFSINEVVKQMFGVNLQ

In the case of `CC(C)c1ccc(Cl)c2[nH]c(C(=O)N3C[C@H]4[C@@H]([C@H]3C(=O)N[C@H](C=O)C[C@@H]3CCNC3=O)C4(C)C)cc12` [Compound 88, (1R,2S,5S)-3-(7-Chloro-4-isopropyl-1H-indole-2-carbonyl)-6,6-dimethyl-N—((S)-1-oxo-3-((S)-2-oxopyrrolidin-3-yl)propan-2-yl)-3-azabicyclo[3.1.0]hexane-2-carboxamide], the IC50 was 41.5 nM in experiment [1]; 40.3 nM in experiment [2] (setting [8]); 44.9 nM in experiment [3]; 46.2 nM in experiment [4]; 239 nM in experiment [5]; 68.5 nM in experiment [6]. In addition, inhibition in experiment [7] was half-maximal at 21.2 nM (IC50).
Regarding `CC1(C)[C@@H]2[C@@H](C(=O)N[C@H](C=O)C[C@@H]3CCNC3=O)N(C(=O)c3cc4cc(Cl)ccc4[nH]3)C[C@@H]21` [Compound 89, (1R,2S,5S)-3-(5-Chloro-1H-indole-2-carbonyl)-6,6-dimethyl-N—((S)-1-oxo-3-((S)-2-oxopyrrolidin-3-yl)propan-2-yl)-3-azabicyclo[3.1.0]hexane-2-carboxamide], the IC50 was found to be 44.7 nM in experiment [1]; 40.9 nM in experiment [2]; 88.5 nM in experiment [3]; 65.4 nM in experiment [4]; 395 nM in experiment [5]; 69.5 nM in experiment [6]. The same compound had an IC50 in experiment [7] of 31 nM.
As for `Cn1c(C(=O)N2C[C@H]3[C@@H]([C@H]2C(=O)N[C@H](C=O)C[C@@H]2CCNC2=O)C3(C)C)cc2cc(Cl)ccc21` [Compound 90, (1R,2S,5S)-3-(5-Chloro-1-methyl-1H-indole-2-carbonyl)-6,6-dimethyl-N—((S)-1-oxo-3-((S)-2-oxopyrrolidin-3-yl)propan-2-yl)-3-azabicyclo[3.1.0]hexane-2-carboxamide], the IC50 in experiment [1] amounted to 60.5 nM; in experiment [2], 43.6 nM; in experiment [3], 130 nM; in experiment [4], 79.4 nM; in experiment [5] it was 655 nM; in experiment [6], 202 nM. For the same compound, in experiment [7], the half-maximal inhibitory concentration (IC50) came out at 48 nM.
With `COc1cccc2cc(C(=O)N3C[C@H]4[C@@H]([C@H]3C(=O)N[C@H](C=O)C[C@@H]3CCNC3=O)C4(C)C)[nH]c12` [Compound 91, (1R,2S,5S)-3-(7-Methoxy-1H-indole-2-carbonyl)-6,6-dimethyl-N—((S)-1-oxo-3-((S)-2-oxopyrrolidin-3-yl)propan-2-yl)-3-azabicyclo[3.1.0]hexane-2-carboxamide], the IC50 was determined as 92.9 nM in experiment [1]; 43.9 nM in experiment [2] (setting [8]); 110 nM in experiment [3]; 83.3 nM in experiment [4]; 396 nM in experiment [5]; 215 nM in experiment [6]. Besides, in experiment [7], the IC50 came out at 61.1 nM.
On to `C[C@H](C(=O)N1C[C@H]2[C@@H]([C@H]1C(=O)N[C@H](C=O)C[C@@H]1CCNC1=O)C2(C)C)C1CCCCC1` [Compound 92, (1R,2S,5S)-3-((S)-2-Cyclohexylpropanoyl)-6,6-dimethyl-N—((S)-1-oxo-3-((S)-2-oxopyrrolidin-3-yl)propan-2-yl)-3-azabicyclo[3.1.0]hexane-2-carboxamide], for which the IC50 in experiment [1] was determined as 43.9 nM; in experiment [2] (setting [8]), 45 nM; in experiment [3], 109 nM; in experiment [4], 89.6 nM; in experiment [5] it was 418 nM; in experiment [6], 162 nM. For the same compound, the IC50 in experiment [7] turned out to be 39.4 nM.
With `Cc1ccc2[nH]c(C(=O)N3C[C@H]4[C@@H]([C@H]3C(=O)N[C@H](C=O)C[C@@H]3CCNC3=O)C4(C)C)cc2c1` [Compound 93, (1R,2S,5S)-6,6-Dimethyl-3-(5-methyl-1H-indole-2-carbonyl)-N—((S)-1-oxo-3-((S)-2-oxopyrrolidin-3-yl)propan-2-yl)-3-azabicyclo[3.1.0]hexane-2-carboxamide], the 50% inhibitory concentration (IC50) in experiment [1] came out at 32.9 nM; in experiment [2], 45.1 nM; in experiment [3] it was 55.1 nM; in experiment [4], 73.2 nM; in experiment [5], 317 nM; in experiment [6], 53.2 nM. The IC50 in experiment [7] came to 24 nM.
As for `CC1(C)[C@@H]2[C@@H](C(=O)N[C@H](C=O)C[C@@H]3CCNC3=O)N(C(=O)C3(O)CCCCC3)C[C@@H]21` [Compound 94, (1R,2S,5S)-3-(1-Hydroxycyclohexanecarbonyl)-6,6-dimethyl-N—((S)-1-oxo-3-((S)-2-oxopyrrolidin-3-yl)propan-2-yl)-3-azabicyclo[3.1.0]hexane-2-carboxamide], the IC50 in experiment [1] worked out at 69.9 nM; in experiment [2] (setting [8]), 45.1 nM; in experiment [3], 231 nM; in experiment [4], 115 nM; in experiment [5] it was 568 nM; in experiment [6], 344 nM. The compound further gave an IC50 in experiment [7] of 180 nM.
In the case of `CC(C)(C)CC(=O)N1C[C@H]2[C@@H]([C@H]1C(=O)N[C@H](C=O)C[C@@H]1CCNC1=O)C2(C)C` [Compound 95, (1R,2S,5S)-3-(3,3-Dimethylbutanoyl)-6,6-dimethyl-N—((S)-1-oxo-3-((S)-2-oxopyrrolidin-3-yl)propan-2-yl)-3-azabicyclo[3.1.0]hexane-2-carboxamide], the half-maximal inhibitory concentration (IC50) in experiment [1] turned out to be 67.5 nM; in experiment [2] (setting [8]) it was 45.5 nM; in experiment [3], 124 nM; in experiment [4], 100 nM; in experiment [5] it was 413 nM; in experiment [6] it was 189 nM. This compound came in with an IC50 in experiment [7] of 64.4 nM.
Turning to `CC1(C)[C@@H]2[C@@H](C(=O)N[C@H](C=O)C[C@@H]3CCNC3=O)N(C(=O)c3cc4c(Cl)cc(Cl)cc4[nH]3)C[C@@H]21` [Compound 97, (1R,2S,5S)-3-(4,6-Dichloro-1H-indole-2-carbonyl)-6,6-dimethyl-N—((S)-1-oxo-3-((S)-2-oxopyrrolidin-3-yl)propan-2-yl)-3-azabicyclo[3.1.0]hexane-2-carboxamide], the IC50 is 46 nM in experiment [1]; 49.9 nM in experiment [2]; 72 nM in experiment [3]; 75.4 nM in experiment [4]; 395 nM in experiment [5]; 88.9 nM in experiment [6]. Moreover, the midpoint of inhibition in experiment [7], the IC50, lay at 27 nM.
Regarding `O=C[C@H](C[C@@H]1CCNC1=O)NC(=O)[C@@H]1C[C@@H](F)CN1C(=O)c1cc2ccccc2[nH]1` [Compound 98, (2S,4R)-4-fluoro-1-(1H-Indole-2-carbonyl)-N—((S)-1-oxo-3-((S)-2-oxopyrrolidin-3-yl)propan-2-yl)pyrrolidine-2-carboxamide], the IC50 in experiment [1] is 57 nM; in experiment [2], 51.1 nM; in experiment [3] it was 81 nM; in experiment [4] it was 206 nM; in experiment [5] it was 518 nM; in experiment [6], 105 nM. In experiment [7], this compound registered an IC50 of 7 nM.
Regarding `Cn1c(C(=O)N2C[C@H]3[C@@H]([C@H]2C(=O)N[C@H](C=O)C[C@@H]2CCNC2=O)C3(C)C)cc2c(F)cccc21` [Compound 100, (1R,2S,5S)-3-(4-Fluoro-1-methyl-1H-indole-2-carbonyl)-6,6-dimethyl-N—((S)-1-oxo-3-((S)-2-oxopyrrolidin-3-yl)propan-2-yl)-3-azabicyclo[3.1.0]hexane-2-carboxamide], the IC50 in experiment [1] is 106 nM; in experiment [2], 54 nM; in experiment [3], 133 nM; in experiment [4], 92.5 nM; in experiment [5], 877 nM; in experiment [6], 398 nM. In experiment [7], this compound had an IC50 of 94.4 nM.
For the compound `CO[C@H]1C[C@@H](C(=O)N[C@H](C=O)C[C@@H]2CCNC2=O)N(C(=O)c2cc3ccccc3[nH]2)C1` [Compound 102, (2S,4S)-1-(1H-Indole-2-carbonyl)-4-methoxy-N—((S)-1-oxo-3-((S)-2-oxopyrrolidin-3-yl)propan-2-yl)pyrrolidine-2-carboxamide], the IC50 in experiment [1] turned out to be 118 nM; in experiment [2] it was 63.2 nM; in experiment [3], 141 nM; in experiment [4], 204 nM; in experiment [5] it was 631 nM; in experiment [6], 199 nM. The same compound came in with an IC50 in experiment [7] of 83 nM.
In the case of `C[C@H](C(=O)N1C[C@H]2[C@@H]([C@H]1C(=O)N[C@H](C=O)C[C@@H]1CCNC1=O)C2(C)C)c1ccccc1` [Compound 104, (1R,2S,5S)-6,6-Dimethyl-N—((S)-1-oxo-3-((S)-2-oxopyrrolidin-3-yl)propan-2-yl)-3-((S)-2-phenylpropanoyl)-3-azabicyclo[3.1.0]hexane-2-carboxamide], the IC50 in experiment [1] was 116 nM; in experiment [2] (setting [8]), 65.1 nM; in experiment [3], 197 nM; in experiment [4], 114 nM; in experiment [5] it was 684 nM; in experiment [6], 861 nM. Moreover, 109 nM corresponded to half-maximal inhibition in experiment [7] (IC50).
As for `O=C[C@H](C[C@@H]1CCNC1=O)NC(=O)[C@@H]1[C@H]2C[C@H](F)[C@H](C2)N1C(=O)c1cc2ccccc2[nH]1` [Compound 106, (1S,3S,4R,6S)-6-Fluoro-2-(1H-indole-2-carbonyl)-N—((S)-1-oxo-3-((S)-2-oxopyrrolidin-3-yl)propan-2-yl)-2-azabicyclo[2.2.1]heptane-3-carboxamide], the IC50 was 91.2 nM in experiment [1]; 73.7 nM in experiment [2]; 118 nM in experiment [3]; 176 nM in experiment [4]; 859 nM in experiment [5]; 156 nM in experiment [6]. The IC50 in experiment [7] was determined as 39.7 nM.
